Measurements reported in patent US20250034196A1, “ESTER DERIVATIVES OF N4-HYDROXYCYTIDINE AND USE THEREOF” (priority 2021, published 2025).

How the values were obtained:
[1] = tested on: SARS-CoV-2 Omicron B.1.1.529 variant; settings: Vero E6
[2] = tested on: SARS-CoV-2 Omicron B.1.1.529 variant; test: microbe, parasite or virus in culture; settings: Severe acute respiratory syndrome coronavirus 2, Vero C1008, 96 h

Compound | SI (CC50/EC50) [1] | EC50 [2] [µM] | EC90 [2] [µM]
CC(=O)ONc1ccn([C@@H]2O[C@H](CO)[C@@H](O)[C@H]2O)c(=O)n1 [EX-2] | 11.38 | 1.6 | 2.48
CC(C)C(=O)OC[C@H]1O[C@@H](n2ccc(NO)nc2=O)[C@H](O)[C@@H]1O [Molnupiravir] | >6.65 | 15.1 | 23.4
